Measured values: ChEMBL document CHEMBL2440076, “New triarylpyrazoles as broad-spectrum anticancer agents: design, synthesis, and biological evaluation” (Eur J Med Chem, 2013)

What was measured:
Assay type in all cases: functional
SF-539 = assay: Growth inhibition of human SF539 cells assessed as cell growth at 5X10'-6 M after 48 hrs by sulforhodamine B assay; conditions: SF-539, 48 h, read-out: Activity
T47D [1] = assay: Growth inhibition of human T47D cells assessed as cell growth at 5X10'-5 M after 48 hrs by sulforhodamine B assay; conditions: read-out: Activity
MDA-MB-435 = assay: Growth inhibition of human MDA-MB-435 cells assessed as cell growth at 5X10'-9 M after 48 hrs by sulforhodamine B assay; conditions: MDA-MB-435, 48 h, read-out: Activity
HCT-116 [2] = assay: Growth inhibition of human HCT116 cells assessed as cell growth at 5X10'-8 M after 48 hrs by sulforhodamine B assay; conditions: HCT-116, 48 h, read-out: Activity
HOP-92 = assay: Growth inhibition of human HOP92 cells assessed as cell growth at 5X10'-9 M after 48 hrs by sulforhodamine B assay; conditions: HOP-92, 48 h, read-out: Activity
786-0 = assay: Growth inhibition of human 786-0 cells assessed as cell growth at 5X10'-8 M after 48 hrs by sulforhodamine B assay; conditions: 786-0, 48 h, read-out: Activity
Malme-3M = assay: Growth inhibition of human MALME-3M cells assessed as cell growth at 5X10'-5 M after 48 hrs by sulforhodamine B assay; conditions: read-out: Activity
KM12 = assay: Growth inhibition of human KM12 cells assessed as cell growth at 5X10'-8 M after 48 hrs by sulforhodamine B assay; conditions: KM12, 48 h, read-out: Activity
RPMI-8226 = assay: Growth inhibition of human RPMI8226 cells assessed as cell growth at 5X10'-5 M after 48 hrs by sulforhodamine B assay; conditions: RPMI-8226, 48 h, read-out: Activity
SF-295 = assay: Growth inhibition of human SF295 cells assessed as cell growth at 5X10'-5 M after 48 hrs by sulforhodamine B assay; conditions: SF-295, 48 h, read-out: Activity
SW-620 [3] = assay: Growth inhibition of human SW620 cells assessed as cell growth at 5X10'-8 M after 48 hrs by sulforhodamine B assay; conditions: SW-620, 48 h, read-out: Activity
HCT-116 [4] = assay: Growth inhibition of human HCT116 cells assessed as cell growth at 5X10'-9 M after 48 hrs by sulforhodamine B assay; conditions: HCT-116, 48 h, read-out: Activity
A549 [5] = assay: Growth inhibition of human A549/ATCC cells assessed as cell growth at 5X10'-8 M after 48 hrs by sulforhodamine B assay; conditions: A549, 48 h, read-out: Activity
MDA-MB-468 = assay: Growth inhibition of human MDA-MB-468 cells assessed as cell growth at 5X10'-9 M after 48 hrs by sulforhodamine B assay; conditions: MDA-MB-468, 48 h, read-out: Activity
SK-MEL-28 = assay: Growth inhibition of human SK-MEL-28 cells assessed as cell growth at 5X10'-9 M after 48 hrs by sulforhodamine B assay; conditions: SK-MEL-28, 48 h, read-out: Activity
A549 [6] = assay: Growth inhibition of human A549/ATCC cells assessed as cell growth at 5X10'-5 M after 48 hrs by sulforhodamine B assay; conditions: A549, 48 h, read-out: Activity
OVCAR-8 = assay: Growth inhibition of human OVCAR8 cells assessed as cell growth at 5X10'-5 M after 48 hrs by sulforhodamine B assay; conditions: OVCAR-8, 48 h, read-out: Activity
NCI-H522 = assay: Growth inhibition of human NCI-H522 cells assessed as cell growth at 5X10'-9 M after 48 hrs by sulforhodamine B assay; conditions: NCI-H522, 48 h, read-out: Activity
SF-268 = assay: Growth inhibition of human SF268 cells assessed as cell growth at 5X10'-9 M after 48 hrs by sulforhodamine B assay; conditions: SF-268, 48 h, read-out: Activity
SW-620 [7] = assay: Growth inhibition of human SW620 cells assessed as cell growth at 5X10'-7 M after 48 hrs by sulforhodamine B assay; conditions: SW-620, 48 h, read-out: Activity
HT-29 [8] = assay: Growth inhibition of human HT-29 cells assessed as cell growth at 5X10'-9 M after 48 hrs by sulforhodamine B assay; conditions: HT-29, 48 h, read-out: Activity
MDA-MB-231 [9] = assay: Growth inhibition of human MDA-MB-231 cells assessed as cell growth at 5X10'-9 M after 48 hrs by sulforhodamine B assay; conditions: MDA-MB-231, 48 h, read-out: Activity
U-251 = assay: Growth inhibition of human U251 cells assessed as cell growth at 5X10'-7 M after 48 hrs by sulforhodamine B assay; conditions: U-251, 48 h, read-out: Activity
HT-29 [10] = assay: Growth inhibition of human HT-29 cells assessed as cell growth at 5X10'-5 M after 48 hrs by sulforhodamine B assay; conditions: HT-29, 48 h, read-out: Activity
K562 = assay: Growth inhibition of human K562 cells assessed as cell growth at 5X10'-9 M after 48 hrs by sulforhodamine B assay; conditions: K562, 48 h, read-out: Activity
OVCAR-3 = assay: Growth inhibition of human OVCAR3 cells assessed as cell growth at 5X10'-9 M after 48 hrs by sulforhodamine B assay; conditions: OVCAR-3, 48 h, read-out: Activity
NCI-H322M = assay: Growth inhibition of human NCI-H322M cells assessed as cell growth at 5X10'-7 M after 48 hrs by sulforhodamine B assay; conditions: read-out: Activity
UO-31 [11] = assay: Growth inhibition of human UO31 cells assessed as cell growth at 5X10'-5 M after 48 hrs by sulforhodamine B assay; conditions: UO-31, 48 h, read-out: Activity
HCT-15 = assay: Growth inhibition of human HCT15 cells assessed as cell growth at 5X10'-6 M after 48 hrs by sulforhodamine B assay; conditions: HCT-15, 48 h, read-out: Activity
NCI-H460 = assay: Growth inhibition of human NCI-H460 cells assessed as cell growth at 5X10'-7 M after 48 hrs by sulforhodamine B assay; conditions: NCI-H460, 48 h, read-out: Activity
UO-31 [12] = assay: Growth inhibition of human UO31 cells assessed as cell growth at 5X10'-8 M after 48 hrs by sulforhodamine B assay; conditions: UO-31, 48 h, read-out: Activity
T47D [13] = assay: Growth inhibition of human T47D cells assessed as cell growth at 5X10'-8 M after 48 hrs by sulforhodamine B assay; conditions: read-out: Activity
HT-29 [14] = assay: Growth inhibition of human HT-29 cells assessed as cell growth at 5X10'-8 M after 48 hrs by sulforhodamine B assay; conditions: HT-29, 48 h, read-out: Activity
SNB-19 = assay: Growth inhibition of human SNB19 cells assessed as cell growth at 5X10'-8 M after 48 hrs by sulforhodamine B assay; conditions: SNB-19, 48 h, read-out: Activity
SK-OV-3 = assay: Growth inhibition of human SKOV3 cells assessed as cell growth at 5X10'-8 M after 48 hrs by sulforhodamine B assay; conditions: SK-OV-3, 48 h, read-out: Activity
MDA-MB-231 [15] = assay: Growth inhibition of human MDA-MB-231 cells assessed as cell growth at 5X10'-8 M after 48 hrs by sulforhodamine B assay; conditions: MDA-MB-231, 48 h, read-out: Activity

Row | SMILES | growth at 5 µM (SF-539) | growth at 50 µM (T47D [1]) | growth at 0.005 µM (MDA-MB-435) | growth at 0.05 µM (HCT-116 [2]) | growth at 0.005 µM (HOP-92) | growth at 0.05 µM (786-0) | growth at 50 µM (Malme-3M) | growth at 0.05 µM (KM12) | growth at 50 µM (RPMI-8226) | growth at 50 µM (SF-295) | growth at 0.05 µM (SW-620 [3]) | growth at 0.005 µM (HCT-116 [4]) | growth at 0.05 µM (A549 [5]) | growth at 0.005 µM (MDA-MB-468) | growth at 0.005 µM (SK-MEL-28) | growth at 50 µM (A549 [6]) | growth at 50 µM (OVCAR-8) | growth at 0.005 µM (NCI-H522) | growth at 0.005 µM (SF-268) | growth at 0.5 µM (SW-620 [7]) | other results
1 | COc1cc(-c2nn(-c3cccc(NC(=O)c4cccc(C(F)(F)F)c4)c3)cc2-c2ccncc2)ccc1Cl | -41% | 21% | 96% | 96% | 90% | 98% | 29% | 95% | -4% | -26% | 98% | 99% | 98% | 94% | 103% | 9% | 10% | 95% | 94% | 89% | growth at 0.005 µM (HT-29 [8]): 96%; growth at 0.005 µM (MDA-MB-231 [9]): 102%; growth at 0.5 µM (U-251): 88%; growth at 50 µM (HT-29 [10]): -4%; growth at 0.005 µM (K562): 94%; growth at 0.005 µM (OVCAR-3): 105%; growth at 0.5 µM (NCI-H322M): 87%; growth at 50 µM (UO-31 [11]): 19%; growth at 5 µM (HCT-15): 15%; growth at 0.5 µM (NCI-H460): 90%; growth at 0.05 µM (UO-31 [12]): 75%; growth at 0.05 µM (T47D [13]): 91%; growth at 0.05 µM (HT-29 [14]): 96%; growth at 0.05 µM (SNB-19): 96%; growth at 0.05 µM (SK-OV-3): 103%; growth at 0.05 µM (MDA-MB-231 [15]): 97%
2 | O=C(Nc1cccc(-n2cc(-c3ccncc3)c(-c3ccc(Cl)c(O)c3)n2)c1)Nc1cc(C(F)(F)F)cc(C(F)(F)F)c1 | -91% | -25% | 98% | 102% | 83% | 99% | -64% | 103% | 5% | -76% | 101% | 101% | 94% | 94% | 101% | -80% | -53% | 101% | 98% | 85% | growth at 0.005 µM (HT-29 [8]): 110%; growth at 0.005 µM (MDA-MB-231 [9]): 94%; growth at 0.5 µM (U-251): 49%; growth at 50 µM (HT-29 [10]): -90%; growth at 0.005 µM (K562): 105%; growth at 0.005 µM (OVCAR-3): 109%; growth at 0.5 µM (NCI-H322M): 84%; growth at 50 µM (UO-31 [11]): -86%; growth at 5 µM (HCT-15): -9%; growth at 0.5 µM (NCI-H460): 45%; growth at 0.05 µM (UO-31 [12]): 89%; growth at 0.05 µM (T47D [13]): 98%; growth at 0.05 µM (HT-29 [14]): 107%; growth at 0.05 µM (SNB-19): 99%; growth at 0.05 µM (SK-OV-3): 102%; growth at 0.05 µM (MDA-MB-231 [15]): 92%
3 | O=C(Nc1cccc(-n2cc(-c3ccncc3)c(-c3ccc(Cl)c(O)c3)n2)c1)c1ccc(N2CCOCC2)c(C(F)(F)F)c1 | 21% | 44% | 93% | 97% | 85% | 95% | -40% | 93% | -14% | -59% | 104% | 99% | 101% | 95% | 104% | 4% | 26% | 93% | 90% | 106% | growth at 0.005 µM (HT-29 [8]): 101%; growth at 0.005 µM (MDA-MB-231 [9]): 96%; growth at 0.5 µM (U-251): 94%; growth at 50 µM (HT-29 [10]): 16%; growth at 0.005 µM (K562): 96%; growth at 0.005 µM (OVCAR-3): 98%; growth at 0.5 µM (NCI-H322M): 114%; growth at 50 µM (UO-31 [11]): -5%; growth at 5 µM (HCT-15): 18%; growth at 0.5 µM (NCI-H460): 98%; growth at 0.05 µM (UO-31 [12]): 88%; growth at 0.05 µM (T47D [13]): 101%; growth at 0.05 µM (HT-29 [14]): 101%; growth at 0.05 µM (SNB-19): 104%; growth at 0.05 µM (SK-OV-3): 98%; growth at 0.05 µM (MDA-MB-231 [15]): 93%
